Legend:
BxPC-3 = assay: CellTiter-Glo cell viability, BxPC-3; assay type: cell-based; settings: BxPC-3 cells, 72 h with compound
Experimental: (§1) Antitumor activity against a panel of cancer cell lines Antitumor activity of the compounds was assessed by using the CellTiter-Glow® Luminescent Cell Viability assay (Promega #G7572) according to the manufacturer's instructions. The compounds were tested at 5 or 6 concentrations in 1:2 dilution increments (highest concentration 10 µM) in triplicate well conditions.
(§2) Tumor cells were grown at 37° C. in a humidified atmosphere with 5% CO2 in RPMI 1640 or DMEM medium, supplemented with 10% (v/v) fetal calf serum and 50 μg/ml gentamicin for up to 20 passages, and were passaged once or twice weekly. Cells were harvested using TrypLE or PBS buffer containing 1 mM EDTA, and the percentage of viable cells is determined using a cell counter.
(§3) Cells were harvested from exponential phase cultures, counted and plated in 96 well flat-bottom microtiter plates at a cell density depending on the cell line's growth rate (4,000-20,000 cells/well depending on the cell line's growth rate) in RPMI 1640 or DMEM medium supplemented with 10% (v/v) fetal calf serum and 50 μg/ml gentamicin (140 μl/well). Cultures were incubated at 37° C. and 5% CO2 in a humidified atmosphere. After 24 h, 10 μl of test compounds or control medium are added, and left on the cells for another 72 h. Compounds were serially diluted in DMSO, transferred in cell culture medium, and added to the assay plates. The DMSO concentration was kept constant at <0.2% v/v across the assay plate. Viability of cells was quantified by the CellTiter-Glow® Luminescent Cell Viability assay (Promega #G7572). Luminescence was measured with the microplate luminometer (En Vision Perkin Elmer).
(§4) Sigmoidal concentration-response curves were fitted to the data points (test-versus-control, T/C values) obtained for each tumor model using Graph Pad prism 5.02 software. IC50 values are reported as absolute IC50 values, being the concentration of test compound at the intersection of the concentration-response curves with T/C=50%.

A375 = assay: CellTiter-Glo cell viability, A375; assay type: cell-based; settings: A375 cells, 72 h with compound
Experimental: as §1, §2, §3, §4

22Rv1 = assay: CellTiter-Glo cell viability, 22Rv1; assay type: cell-based; settings: 22Rv1 cells, 72 h with compound
Experimental: as §1, §2, §3, §4

MIA-PaCa-2 = assay: CellTiter-Glo cell viability, MIA-PaCa-2; assay type: cell-based; settings: MIA-PaCa-2 cells, 72 h with compound
Experimental: as §1, §2, §3, §4

HCC-15 = assay: CellTiter-Glo cell viability, HCC-15; assay type: cell-based; settings: HCC-15 cells, 72 h with compound
Experimental: as §1, §2, §3, §4

HepG2 = assay: CellTiter-Glo cell viability, HepG2; assay type: cell-based; settings: HepG2 cells, 72 h with compound
Experimental: as §1, §2, §3, §4

NCI-H1299 = assay: CellTiter-Glo cell viability, NCI-H1299; assay type: cell-based; settings: H1299 cells, 72 h with compound
Experimental: as §1, §2, §3, §4

SK-Mel-5 = assay: CellTiter-Glo cell viability, SK-Mel-5; assay type: cell-based; settings: SK-Mel-5 cells, 72 h with compound
Experimental: as §1, §2, §3, §4

MCF-7 = assay: CellTiter-Glo cell viability, MCF-7; assay type: cell-based; settings: MCF-7 cells, 72 h with compound
Experimental: as §1, §2, §3, §4

[1] = tested on: A2058 melanoma tumor cells; assay: In vivo tumour inhibition, A2058 melanoma xenograft; design: species or system Balb-c/nude mouse; settings: for T/C / TGI: Example 5, 12 mg/kg, day 20 after treatment start; for activity in inhibiting A2058 melanoma cell line in vivo: nude mouse xenograft model of melanoma
Experimental: The A2058 tumor cells were maintained in vitro in DMEM medium supplemented with 10% fetal bovine serum and 1% Anti-Anti at 37° C. in an atmosphere of 5% CO2 in air. The tumor cells were routinely subcultured twice weekly.
Each Balb-c/nude mouse was inoculated subcutaneously at the right flank with A2058 melanoma tumor cells (5×10^6+Matrigel) in 0.2 ml of PBS for tumor development. 10 animals per group were randomized when the average tumor volume reached 74 mm^3. Test compounds were prepared as DMSO stocks and diluted in the injection vehicle before administration. The treatment was administered every other day (QOD) as a peritumoral injection. Vehicle composition was 4% DMSO, 5% ethanol, 20% PEG200, 71% saline. Dosing volume for all groups: 5 mL/kg.
Tumor volume was measured twice weekly in two dimensions using a caliper, and the volume was expressed in mm^3 using the formula: V=0.5a×b^2 where a and b are the long and short diameters of the tumor, respectively. The tumor size was then used for calculations of T/C value: The T/C value (in percent) is an indication of antitumor effectiveness; T and Care the mean volumes of the treated and control groups, respectively, on a given day.
One-way ANOVA was performed to compare tumor volume among treated groups and vehicle group, all data were analyzed using GraphPad Prism 5.0. p<0.05 was considered to be statistically significant.

U87MG = assay: CellTiter-Glo cell viability, U87MG; assay type: cell-based; settings: U87MG cells, 72 h with compound
Experimental: as §1, §2, §3, §4

A-673 = assay: CellTiter-Glo cell viability, A-673; assay type: cell-based; settings: A-673 cells, 72 h with compound
Experimental: as §1, §2, §3, §4

H69 = assay: CellTiter-Glo cell viability, H69; assay type: cell-based; settings: H69 cells, 72 h with compound
Experimental: as §1, §2, §3, §4

A2058 = assay: CellTiter-Glo cell viability, A2058; assay type: cell-based; settings: A2058 cells, 72 h with compound
Experimental: as §1, §2, §3, §4

SK-N-SH = assay: CellTiter-Glo cell viability, SK-N-SH; assay type: cell-based; settings: SK-N-SH cells, 72 h with compound
Experimental: as §1, §2, §3, §4

MOLT-4 = assay: CellTiter-Glo cell viability, MOLT-4; assay type: cell-based; settings: Homo sapiens; MOLT-4 cells, 72 h with compound
Experimental: as §1, §2
as §3, with “After 24 h, 10 μl of test compounds or control medium are added, and left on the cells for another 72 h. Compounds were serially diluted in DMSO, transferred in cell culture medium, and added to the assay plates. The DMSO concentration was kept constant at <0.2% v/v across the assay plate.” left out, “Elmer). […]” for “Elmer).”

SMILES | IC50 (BxPC-3) [nM] | IC50 (A375) [nM] | IC50 (22Rv1) [nM] | IC50 (MIA-PaCa-2) [nM] | IC50 (HCC-15) [nM] | IC50 (HepG2) [nM] | IC50 (NCI-H1299) [nM] | IC50 (SK-Mel-5) [nM] | IC50 (MCF-7) [nM] | T/C [1] [%] | TGI [1] [%] | activity in inhibiting A2058 melanoma cell line in vivo [1] | IC50 (U87MG) [nM] | IC50 (A-673) [nM] | IC50 (H69) [nM] | IC50 (A2058) [nM] | IC50 (SK-N-SH) [nM] | IC50 (MOLT-4) [nM] | IC50 (A-673; Homo sapiens, A673) [nM]
COc1ccc2c(=O)c(-c3ccc(CCCCCC[P+](c4ccccc4)(c4ccccc4)c4ccccc4)cc3)coc2c1OC.[Cl-] [SND477] | 260 | 210 | 110 | 200 | 240 | 660 | 310 | 160 | 210 | 35.6 | 68.7 | significant activity | 320 | 600 | 230 | 240 | 550 | – | –
COc1ccc2c(=O)c(-c3ccc(CCCCCCCC[P+](c4ccccc4)(c4ccccc4)c4ccccc4)cc3)coc2c1OC [SND478] | 250 | 240 | 170 | 190 | 220 | 680 | 260 | 150 | 220 | – | – | – | 390 | 650 | 210 | 270 | 490 | – | –
COc1ccc2c(=O)c(-c3ccc(CCCCCCCCCC[P+](c4ccccc4)(c4ccccc4)c4ccccc4)cc3)coc2c1OC.[Cl-] [SND479] | 220 | 210 | 170 | 110 | 190 | 440 | 200 | 110 | 170 | 33.5 | 70.0 | significant activity | 240 | 440 | 230 | 190 | 210 | – | –
O=c1c(-c2ccc(CCCC[P+](c3ccccc3)(c3ccccc3)c3ccccc3)cc2)coc2c(O)c(O)ccc12 [SND490, (4-(4-(7,8-Dihydroxy-4-oxo-4H-chromen-3-yl)phenyl)butyl)triphenylphosphonium bromide] | – | – | – | – | – | – | – | – | – | – | – | – | – | – | – | – | – | 560 | 1950
